Measured values published in ChEMBL document CHEMBL1141868, “Synthesis, biological activity, and X-ray crystal structural analysis of diaryl ether inhibitors of malarial enoyl acyl carrier protein reductase. Part 1: 4'-substituted triclosan derivatives” (Bioorg Med Chem Lett, 2005).
pEC50, pIC50: −log10 of the molar value.

Assays:
[1] = tested on: Plasmodium falciparum; test: Inhibition of drug-sensitive Plasmodium falciparum 3D7 after 72 hrs; type: functional, organism-based; details: 3D7, 72 h
[2] = molecular target: T1, Enoyl-acyl-carrier protein reductase (Plasmodium falciparum, UniProt Q965D5); test: Inhibition of PfENR enzymatic activity
T1 sequence (Q965D5 whole entry): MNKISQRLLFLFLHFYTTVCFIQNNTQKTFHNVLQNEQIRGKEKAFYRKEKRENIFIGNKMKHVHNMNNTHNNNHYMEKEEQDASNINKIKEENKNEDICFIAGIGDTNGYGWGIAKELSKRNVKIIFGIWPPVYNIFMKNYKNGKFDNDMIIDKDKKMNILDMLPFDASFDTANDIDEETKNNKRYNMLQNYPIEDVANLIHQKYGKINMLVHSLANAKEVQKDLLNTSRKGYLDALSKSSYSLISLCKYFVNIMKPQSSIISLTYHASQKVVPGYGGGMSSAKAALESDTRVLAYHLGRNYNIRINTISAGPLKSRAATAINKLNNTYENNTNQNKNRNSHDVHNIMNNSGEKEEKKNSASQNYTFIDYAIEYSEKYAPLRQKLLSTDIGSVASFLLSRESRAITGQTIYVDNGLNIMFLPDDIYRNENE

[3] = tested on: Plasmodium falciparum; test: Inhibition of drug-resistant Plasmodium falciparum Dd2 after 72 hrs; type: functional, organism-based; details: Dd2, 72 h

SMILES	pEC50 [1]	pIC50 [2]	pEC50 [3]
CNC(=O)c1ccc(Oc2ccc(Cl)cc2O)c(Cl)c1	4.11	6.51	4.00
N#Cc1ccc(Oc2ccc(Cl)cc2O)c(Cl)c1	5.41	6.92	5.27
CC(=O)Nc1ccc(Oc2ccc(Cl)cc2O)c(Cl)c1	4.28	7.24	4.29
O=S(=O)(Nc1ccc(Oc2ccc(Cl)cc2O)c(Cl)c1)C(F)(F)F	< 3.92	6.85	< 3.92
O=C(c1ccc(Oc2ccc(Cl)cc2O)c(Cl)c1)N1CCCCC1	4.93	6.17	4.74
O=C(NCc1ccccc1)c1ccc(Oc2ccc(Cl)cc2O)c(Cl)c1	5.12	5.52	4.69
Oc1cc(Cl)ccc1Oc1ccc(NCc2ccccc2)cc1Cl	4.45	6.85	4.32
O=C(O)c1ccc(Oc2ccc(Cl)cc2O)c(Cl)c1	3.96	6.26	3.89
N#Cc1ccccc1CNc1ccc(Oc2ccc(Cl)cc2O)c(Cl)c1	4.57	6.25	4.34
O=S(=O)(Nc1ccc(Oc2ccc(Cl)cc2O)c(Cl)c1)c1cccc2ccccc12	4.46	6.23	4.36
O=C(NO)c1ccc(Oc2ccc(Cl)cc2O)c(Cl)c1	4.51	5.92	4.51
Oc1ccc(Oc2ccc(Cl)cc2O)c(Cl)c1	4.19	6.66	4.06
Oc1cc(Cl)ccc1Oc1ccc(Cl)cc1Cl [TRICLOSAN]	5.54	7.14	5.41
O=S(=O)(Nc1ccc(Oc2ccc(Cl)cc2O)c(Cl)c1)c1ccc2ccccc2c1	4.63	5.60	4.47
O=C(c1ccc(Oc2ccc(Cl)cc2O)c(Cl)c1)N1CCOCC1	4.20	6.70	4.02
NC(=O)Nc1ccc(Oc2ccc(Cl)cc2O)c(Cl)c1	3.96	6.80	3.92
O=C(Nc1ccc(Oc2ccc(Cl)cc2O)c(Cl)c1)c1ccccc1	4.24	6.77	4.08
Oc1cc(Cl)ccc1Oc1ccc(-c2nn[nH]n2)cc1Cl	3.92	6.38	< 3.82
O=C(c1ccc(Oc2ccc(Cl)cc2O)c(Cl)c1)N1CCCC1	4.68	6.09	4.37
O=[N+]([O-])c1ccc(Oc2ccc(Cl)cc2O)c(Cl)c1	5.68	6.74	5.49
NC(=O)c1ccc(Oc2ccc(Cl)cc2O)c(Cl)c1	4.02	6.92	4.00
O=S(=O)(Nc1ccc(Oc2ccc(Cl)cc2O)c(Cl)c1)c1ccccc1	4.26	6.43	4.11
Nc1ccc(Oc2ccc(Cl)cc2O)c(Cl)c1	3.92	6.44	3.85
Oc1ccccc1CNc1ccc(Oc2ccc(Cl)cc2O)c(Cl)c1	5.35	6.49	5.25
O=C(Nc1ccc(Oc2ccc(Cl)cc2O)c(Cl)c1)N1CCOCC1	4.18	6.60	4.06
CN(C)C(=O)c1ccc(Oc2ccc(Cl)cc2O)c(Cl)c1	4.16	6.34	4.02
N#CCc1ccc(Oc2ccc(Cl)cc2O)c(Cl)c1	4.64	6.72	4.44
